Common to all, as to assay type: biochemical
For one assay, the target named is T1, Caspase-4 (Homo sapiens, UniProt P49662).
T1 construct: mixing the compounds with the respective active caspases; purchased BioVision K154-100
T1 sequence (P49662 81-270 limits assumed): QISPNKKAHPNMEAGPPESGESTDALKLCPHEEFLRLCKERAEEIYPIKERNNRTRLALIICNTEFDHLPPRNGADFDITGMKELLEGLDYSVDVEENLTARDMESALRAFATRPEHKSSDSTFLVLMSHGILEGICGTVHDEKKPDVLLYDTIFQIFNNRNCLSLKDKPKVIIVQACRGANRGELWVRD
T1 sequence (P49662 290-377 limits assumed): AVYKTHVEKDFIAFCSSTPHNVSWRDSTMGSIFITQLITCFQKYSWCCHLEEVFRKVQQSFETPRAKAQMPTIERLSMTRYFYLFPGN
The assay can be described thus: Caspase-4 inhibitor screening assay (BioVision kit, LEVD-AFC). The note with it: for inhibition at 10 µM: read-out: % Inhibition at 10 uM Casp4; for inhibition at 100 µM: read-out: % Inhibition at 100 uM Casp4. A digest of the protocol: (§1)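 Fluorometric read-out of free AFC released from the caspase-specific synthetic substrate. IC50 from concentration series, sometimes narrower.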

For another assay, the target named is T2, Caspase-5 (Homo sapiens, UniProt P51878).
T2 construct: mixing the compounds with the respective active caspases; purchased BioVision K155-100
T2 sequence (P51878 137-327 limits assumed): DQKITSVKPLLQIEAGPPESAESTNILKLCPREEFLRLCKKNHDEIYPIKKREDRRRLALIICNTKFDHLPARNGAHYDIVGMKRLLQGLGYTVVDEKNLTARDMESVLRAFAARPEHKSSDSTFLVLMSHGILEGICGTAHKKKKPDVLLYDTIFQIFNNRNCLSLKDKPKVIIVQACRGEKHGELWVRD
T2 sequence (P51878 347-434 limits assumed): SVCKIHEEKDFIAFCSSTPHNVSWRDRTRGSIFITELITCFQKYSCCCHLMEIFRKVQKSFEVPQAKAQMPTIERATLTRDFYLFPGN
The assay can be described thus: Caspase-5 inhibitor screening assay (BioVision kit, WEHD-AFC). The note with it: for inhibition at 10 µM: read-out: % Inhibition at 10 uM Casp5; for inhibition at 100 µM: read-out: % Inhibition at 100 uM Casp5. A digest of the protocol: as §1

Another assay deals with T3, Caspase-6 (Homo sapiens, UniProt P55212).
T3 construct: mixing the compounds with the respective active caspases; purchased BioVision K156-100
T3 sequence (P55212 24-179 limits assumed): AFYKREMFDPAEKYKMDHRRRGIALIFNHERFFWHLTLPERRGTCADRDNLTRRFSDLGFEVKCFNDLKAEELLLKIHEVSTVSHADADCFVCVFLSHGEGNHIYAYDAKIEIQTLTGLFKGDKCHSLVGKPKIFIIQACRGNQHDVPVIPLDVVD
T3 sequence (P55212 194-293 limits assumed): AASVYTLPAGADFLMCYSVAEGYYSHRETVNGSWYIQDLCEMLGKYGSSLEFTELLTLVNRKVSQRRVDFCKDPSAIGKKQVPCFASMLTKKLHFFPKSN
The assay can be described thus: Caspase-6 inhibitor screening assay (BioVision kit, VEID-AFC). The note with it: for inhibition at 10 µM: read-out: % Inhibition at 10 uM Casp6; for inhibition at 100 µM: read-out: % Inhibition at 100 uM Casp6; for IC50: read-out: IC50 Casp6. A digest of the protocol:
as §1

A further assay concerns the target T4, Caspase-10 (Homo sapiens, UniProt Q92851).
T4 construct: mixing the compounds with the respective active caspases; purchased BioVision K160-100
T4 sequence (Q92851 220-415 limits assumed): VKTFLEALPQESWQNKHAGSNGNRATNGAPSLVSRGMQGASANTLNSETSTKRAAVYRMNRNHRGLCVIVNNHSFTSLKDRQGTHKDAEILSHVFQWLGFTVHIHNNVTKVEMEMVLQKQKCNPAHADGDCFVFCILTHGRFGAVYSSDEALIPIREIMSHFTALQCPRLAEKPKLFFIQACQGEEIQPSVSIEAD
T4 sequence (Q92851 416-521 limits assumed): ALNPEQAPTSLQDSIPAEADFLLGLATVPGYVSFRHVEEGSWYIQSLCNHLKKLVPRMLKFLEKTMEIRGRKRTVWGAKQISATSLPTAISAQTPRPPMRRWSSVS
The assay can be described thus: Caspase-10 inhibitor screening assay (BioVision kit, AEVD-AFC). The note with it: for inhibition at 10 µM: read-out: % Inhibition at 10 uM Casp10; for inhibition at 100 µM: read-out: % Inhibition at 100 uM Casp10. A digest of the protocol: as §1

For another assay, the system named is Caspases 1 through 10. The assay can be described thus: Caspase-1 to Caspase-10 inhibitor screening, profile across the panel. As to the method: The efficacy of an array of compounds as an inhibitor of the activity of Caspases 1 through 10 were assessed by using the respective Caspase Inhibitor Drug Screening Kits (Caspase-1 Catalog #: K151-100, Caspase-2 Catalog #: K152-100, Caspase-3 Catalog #: K153-100, Caspase-4 Catalog #: K154-100, Caspase-5 Catalog #: K155-100, Caspase-6 Catalog #: K156-100, Caspase-7 Catalog #: K157-100, Caspase-8 Catalog #: K158-100, Caspase-9 Catalog #: K159-100, Caspase-10 Catalog #: K160-100, BioVision) following the instructions of the manufacturer. […] Active caspases cleaved their respective synthetic substrates to release free AFC, which was then quantified by fluorometry.
Briefly, the compounds were first tested at 2 concentrations (10 uM and 100 uM final) to determine if there is a hit. […] Each condition was tested in duplicates. […] For some samples, a smaller range of concentrations was tested depending on the % Inhibition results at 10 uM and 100 uM. Results were summarized in Tables 2, 3, and 4 herein after. Table 2 represents the IC50 values (uM) of the test compounds as inhibitors of the activity of the various caspases.
(*) RFU (no inhibitor control)—RFU (compound at a specific concentration)
RFU (no inhibitor control)

Where [1] appears, read: read-out: potency (IC50) against caspase-10.

Counter-ions that a name gives are not always drawn. Like-named read-outs stand apart in the source and are kept apart here. Where only a bound is given, the exact number is not on record here.

In general, inhibition refers to how much of the control response was suppressed. The term IC50 denotes the concentration that gives 50% inhibition. Take `CC(C)(C)[C@H](NC(=O)c1ccc(N)c(Cl)c1)C(=O)N1CCCC1C(=O)N[C@H](/C=C/S(C)(=O)=O)CC(=O)O` (stereo in doubt) [Compound 14, 4-amino-3-chlorobenzene carbonyl-t-Leu-Pro-Asp methyl vinyl sulfone]: the inhibition at 10 µM on Caspase-4 worked out at 100%; at Caspase-5 it was 96%; on Caspase-6, 3%; on Caspase-10 it was 81%. For the same compound, the inhibition at 100 µM on Caspase-4 came to 100%; at Caspase-5, 100%; on Caspase-6, 30%; at Caspase-10, 100%. Besides, the IC50 is 0.09 µM on Caspase-4 (read-out: IC50 Casp4); 0.087 µM on Caspase-4 (read-out: potency (IC50) against caspase-4); 0.56 µM at Caspase-5 (read-out: IC50 Casp5); 0.563 µM on Caspase-5 (read-out: potency (IC50) against caspase-5); over 100 µM at Caspase-6; 2.67 µM at Caspase-10 (read-out: IC50 Casp10). The IC50 on Caspase-10 (setting [1]) is 2.67 µM. Also, the “inhibition profile across caspases, in words” value in the assay with Caspases 1 through 10 was “very strong inhibitory activity towards pro-inflammatory Caspases”.
As for `CC(C)[C@H](NC(=O)[C@H](Cc1cn(C)c2ccccc12)NC(=O)[C@H](CC(=O)O)NC(=O)OCc1ccccc1)C(=O)N[C@H](/C=C/S(C)(=O)=O)CC(=O)O` [Compound 36, Z-Asp-Trp(N-Me)-Val-Asp-methyl vinyl sulfone], the inhibition at 10 µM was 57% at Caspase-4, 14% on Caspase-5, 0% on Caspase-6 and 31% at Caspase-10. For the same compound, the inhibition at 100 µM on Caspase-4 is 99%; at Caspase-5, 50%; at Caspase-6, 19%; at Caspase-10, 98%. For the same compound, the IC50 is 9.02 µM at Caspase-4 (read-out: IC50 Casp4), 25.4 µM at Caspase-5 (read-out: IC50 Casp5), over 100 µM on Caspase-6 and 18.6 µM on Caspase-10 (read-out: IC50 Casp10).
`CCC(C)[C@H](NC(=O)[C@H](CCC(=O)O)NC(=O)[C@@H](NC(=O)OCc1ccccc1)C(C)C)C(=O)N[C@H](/C=C/S(C)(=O)=O)CC(=O)O` (stereo partly drawn) [Compound 38, Z-Val-Glu-Ile-Asp-methyl vinyl sulfone]: the inhibition at 10 µM was 100% on Caspase-4, 32% on Caspase-5, 88% at Caspase-6 and 100% on Caspase-10. In addition, the inhibition at 100 µM at Caspase-4 was determined as 100%; on Caspase-5, 81%; on Caspase-6 it was 96%; on Caspase-10 it was 100%. Moreover, the IC50 was found to be 0.375 µM on Caspase-4 (read-out: IC50 Casp4), 19.6 µM on Caspase-5 (read-out: IC50 Casp5), 0.6 µM on Caspase-6 and 0.13 µM at Caspase-10 (read-out: IC50 Casp10).
With `CC(C)[C@H](NC(=O)[C@H](CCC(=O)O)NC(=O)[C@H](Cc1c[nH]c2ccccc12)NC(=O)OCc1ccccc1)C(=O)N[C@H](/C=C/S(C)(=O)=O)CC(=O)O` [Compound 40, Z-Trp-Glu-Val-Asp-methyl vinyl sulfone], the inhibition at 10 µM is 100% on Caspase-4, 95% at Caspase-5, 7% on Caspase-6 and 80% at Caspase-10. The inhibition at 100 µM on Caspase-4 is 100%; on Caspase-5, 100%; at Caspase-6 it was 51%; on Caspase-10 it was 99%. In addition, the concentration for half-maximal inhibition (IC50) at Caspase-4 (read-out: IC50 Casp4) is 0.18 µM; on Caspase-5 (read-out: IC50 Casp5), 0.75 µM; at Caspase-6, about 100 µM; at Caspase-10 (read-out: IC50 Casp10), 3.29 µM.
In the case of `CC(C)[C@H](NC(=O)[C@@H](N)Cc1ccc(O)cc1)C(=O)N[C@@H](C)C(=O)N[C@H](/C=C/S(C)(=O)=O)CC(=O)O` [Compound 42, Tyr-Val-Ala-Asp methyl vinyl sulfone], the inhibition at 10 µM was 28% at Caspase-4, 43% at Caspase-5, 6% on Caspase-6 and 13% on Caspase-10. The inhibition at 100 µM on Caspase-4 amounted to 100%; at Caspase-5, 93%; at Caspase-6, 4%; at Caspase-10 it was 79%. The IC50 at Caspase-4 (read-out: IC50 Casp4) is 17.1 µM; on Caspase-5 (read-out: IC50 Casp5) it was 12.4 µM; at Caspase-6 it was over 100 µM; at Caspase-10 (read-out: IC50 Casp10), 34 µM.
`CCOC(=O)/C=C/[C@@H](N)CC(=O)O` [Compound 44, Asp ethyl vinyl ester tosyl salt]: the inhibition at 10 µM on Caspase-4 was 0%; on Caspase-5, 0%; at Caspase-6, 0%; at Caspase-10 it was 4%. Further, the inhibition at 100 µM at Caspase-4 worked out at 0%; at Caspase-5 it was 0%; at Caspase-6 it was 0%; on Caspase-10, 15%. Moreover, the half-inhibitory concentration (IC50) at Caspase-4 (read-out: IC50 Casp4), on Caspase-5 (read-out: IC50 Casp5), on Caspase-6 and on Caspase-10 (read-out: IC50 Casp10) was over 100 µM throughout.
With `CC(C)[C@H](NC(=O)[C@@H](NC(=O)[C@H](CC(=O)O)NC(=O)OCc1ccccc1)c1ccccc1)C(=O)N[C@H](/C=C/S(C)(=O)=O)CCC(=O)O` [Compound 84, Z-Asp-Phg-Val-Glu methyl vinyl sulfone], the inhibition at 10 µM on Caspase-4 turned out to be 0%; at Caspase-5, 0%; at Caspase-6, 0%; on Caspase-10, 2%. The inhibition at 100 µM at Caspase-4 was found to be 0%; on Caspase-5, 0%; at Caspase-6, 5%; on Caspase-10 it was 0%. Further, the concentration for half-maximal inhibition (IC50) at Caspase-4 (read-out: IC50 Casp4), at Caspase-5 (read-out: IC50 Casp5), on Caspase-6 and on Caspase-10 (read-out: IC50 Casp10) was over 100 µM in each case.
Take `CCOC(=O)/C=C/[C@H](CC(=O)O)NC(=O)[C@@H](NC(=O)[C@H](CCC(=O)O)NC(=O)[C@@H](NC(=O)OCc1ccccc1)C(C)C)c1ccccc1` [Compound 126, Z-Val-Glu-Phg-Asp-Ethyl Vinyl ester]: the 50% inhibitory concentration (IC50) is 0.77 µM at Caspase-4 (read-out: IC50 Casp4), 8.58 µM on Caspase-5 (read-out: IC50 Casp5), 0.48 µM at Caspase-6 and 0.002 µM on Caspase-10 (setting [1]).

These data come from patent US10975119B2, “Selective cysteine protease inhibitors and uses thereof” (Genesis Technologies Limited, priority 2011, dated 2021).
